Where a name gives a salt, the structure may show the parent alone. Read-outs that look alike come from different tables or passages of the source.
Columns and labels:
[1] = biological target: T1, 5-HT1A serotonin receptor subtype (Rattus norvegicus, UniProt P19327); assay: 5-HT1A receptor binding, displacement of 3H-8-OH DPAT (procedure of Hall et al.); conditions: for inhibition at 0.1 µM: read-out: Affinity for 5-HT1A Receptor Sites, % Inhibition at 100 nM; for Ki: Ki calculated from IC50 values, read-out: Affinity for 5-HT1A Receptor Sites, Ki
T1 construct: from tissue
T1 sequence (P19327 1-422): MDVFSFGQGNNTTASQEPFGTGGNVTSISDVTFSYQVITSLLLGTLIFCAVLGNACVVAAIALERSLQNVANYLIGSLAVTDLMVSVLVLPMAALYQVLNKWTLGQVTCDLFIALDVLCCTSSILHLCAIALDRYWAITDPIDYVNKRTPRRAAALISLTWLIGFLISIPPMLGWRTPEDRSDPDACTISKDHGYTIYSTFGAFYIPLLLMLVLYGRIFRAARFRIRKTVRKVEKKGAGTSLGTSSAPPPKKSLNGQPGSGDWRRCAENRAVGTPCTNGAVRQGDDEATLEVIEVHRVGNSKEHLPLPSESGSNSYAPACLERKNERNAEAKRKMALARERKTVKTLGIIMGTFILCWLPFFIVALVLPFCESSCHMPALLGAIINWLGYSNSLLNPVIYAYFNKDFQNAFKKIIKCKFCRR
Source text: The serotoninergic properties of the compounds of this invention were established by the procedure of Hall et al., J. Neurochem.

[2] = biological target: T2, D2 receptor (Rattus norvegicus, UniProt P61169); assay: D2 receptor affinity, reduction of 3H-spiroperidol binding; conditions: read-out: Affinity for D2 Receptor Sites, % Inhibition at 1 μM
T2 construct: from tissue
Experimental: The percentage reduction of ^3 H-spiroperidol binding at 1 μM concentration of test compound is reported, infra.

[3] = tested on: 5-HT1A receptor; conditions: background literature; cited from earlier work
[4] = background, U.S. Pat. No. 4,818,756; cited from earlier work
[5] = 100 nM test compound, 3H-8-OH DPAT
[6] = 1 μM test compound, 3H-spiroperidol

T2 sequence (P61169 whole entry): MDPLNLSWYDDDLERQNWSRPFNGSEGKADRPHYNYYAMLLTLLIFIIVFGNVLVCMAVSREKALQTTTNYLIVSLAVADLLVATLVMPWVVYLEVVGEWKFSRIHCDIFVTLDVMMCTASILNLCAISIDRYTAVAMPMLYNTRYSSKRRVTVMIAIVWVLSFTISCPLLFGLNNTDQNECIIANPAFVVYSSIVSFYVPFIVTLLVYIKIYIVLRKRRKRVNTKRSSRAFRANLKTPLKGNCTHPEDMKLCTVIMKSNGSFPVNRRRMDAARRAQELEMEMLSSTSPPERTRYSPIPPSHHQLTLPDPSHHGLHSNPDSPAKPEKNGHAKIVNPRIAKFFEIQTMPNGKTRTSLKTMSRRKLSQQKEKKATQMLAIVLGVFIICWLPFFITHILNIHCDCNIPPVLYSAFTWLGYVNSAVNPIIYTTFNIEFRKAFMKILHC

| SMILES | inhibition at 0.1 µM [1, 5] | binding at the 5-HT1A site (in words) [3] | also measured |
| --- | --- | --- | --- |
| COc1ccccc1N1CCN(CCCN2CC3CC4CC(C3)CC2C4)CC1 [Example 4, 4-[3-[4-(2-Methoxyphenyl)-1-piperazinyl]propyl]-4-azatricyclo[4.3.1.1(3,8)]undecane Trihydrochloride One Quarter Hydrate] | 72% |  | Ki ([1]; 3H-8-OH DPAT): 0.033 µM; inhibition at 1 µM [2, 6]: 14% |
| O=C(CCN1CCN(c2cccc(Cl)c2)CC1)N1CC2CC3CC(C2)CC1C3 [Example 1, 1-(4-Azatricyclo[4.3.1.1(3,8)]undec-4-yl)-3-[4-(3-chlorophenyl)-1-piperazinyl]-1-propanone] | 78% |  | Ki ([1]; 3H-8-OH DPAT): 0.03 µM; inhibition at 1 µM [2, 6]: 42% |
| O=C(CCN1CCN(c2ncccn2)CC1)N1CC2CC3CC(C2)CC1C3 [Example 5, 1-(4-Azatricyclo[4.3.1.1(3,8)]undec-4-yl)-3-[4-(2-pyrimidinyl)-1-piperazinyl]-1-propanone] | 46% |  |  |
| CCCC(C)C1(CC)C(=O)NC(=O)NC1=O (centres unmarked) [pentobarbital] |  | do not act via the 5-HT1A receptor |  |
| Clc1cccc(N2CCN(CCCN3CC4CC5CC(C4)CC3C5)CC2)c1 [Example 2, 4-[3-[4-(3-Chlorophenyl)-1-piperazinyl]propyl]-4-azatricyclo[4.3.1.1(3,8)]undecane Dihydrochloride One Third Hydrate] | 47% |  |  |
| O=C1c2ccccc2S(=O)(=O)N1CCCCN1CCN(c2ncccn2)CC1 [TVX Q 7821, 2-[4-[4-(2-pyrimidinyl)-1-piperazinyl]buyl]-1,2-benzisothiazol-3-(2H)one-1,1-dioxide hydrochloride] |  | demonstrate binding at the 5-HT1A site | antidepressant activity (in words) [4]: found to possess antidepressant activity |
| COc1ccccc1N1CCN(CCC(=O)N2CC3CC4CC(C3)CC2C4)CC1 [Example 3, 1-(4-Azatricyclo[4.3.1.1(3,8)]undec-4-yl)-3-[4-(2-methoxyphenyl)-1-piperazinyl]-1-propanone Dihydrochloride Hydrate] |  |  | inhibition at 0.1 µM [1]: 92%; inhibition at 1 µM [2]: 71% |
| O=C1CC2(CCCC2)CC(=O)N1CCCCN1CCN(c2ncccn2)CC1 [Buspirone, 8-[4-[-4-(2-pyrimidinyl)-1-piperazinyl]butyl]-8-azaspiro[4.5]decane-7,9-dione] |  | demonstrate binding at the 5-HT1A site |  |
